According to US10301287B2, “Solid forms of cenicriviroc mesylate and processes of making solid forms of cenicriviroc mesylate” (Tobira Therapeutics, Inc., priority 2016, dated 2019):

Tests used:
[1] = cited from earlier work
[2] = Particle size according to USP <429> (laser light diffraction); type: physicochemical
Description: In some embodiments, the particle size and the particle size distribution (e.g., D90, D50, and D10) of a compound of the invention is determined by the laser light diffraction particle size distribution analysis. The particle size distribution is determined in accordance with the Fraunhofer light diffraction method. In this method, a coherent laser beam passes through the sample and the resulting diffraction pattern is focused on a multi-element detector. Since the diffraction pattern depends, among other parameters, on particle size, the particle size distribution can be calculated based on the measured diffraction pattern of the sample. In one embodiment, the particle size and the particle size distribution is measured according to U.S. Pharmacopeia (USP) <429>.
Particle Size: The particle size of the Micronized CVC mesylate Form A and the non-micronized CVC mesylate Form A were determined according to USP <429> as shown in Table 5.

[3] = Flow properties, Revolution Powder Analyser; type: physicochemical; conditions: for Avalanche Angle / Avalanche Energy / Avalanche Time / Break Energy / Rest Angle: drum rotation speed 0.3 rpm; for Interpretation (flow): from rest angle, Table 10
Description: Flow Properties: The flow properties of the samples were analysed using a Revolution Powder Analyser. Approximately 100 ml of the sample is placed in a sample drum which has two borosilicate glass sides. A motor turns two high precision silicone rollers, which in turn rotate the drum. A digital camera with the assistance of cold cathode backlight illumination takes images of the powder during the rotation process. Using a drum rotation speed of 0.3 rpm the time to avalanche, avalanche angle, avalanche energy, break energy and rest angle are measured. The software calculates these properties by analysing the images produced as the drum is rotated. The results of these properties can be used to assess the flow of the bulk powder. The interpretation of the rest angle (angle of repose) are given in Table 10 (see USP method <1174>; see also, Carr, R. L. Evaluating Flow Properties of Solids. Chem Eng. 1965, 72, 163-168).

[4] = BET surface area by multipoint nitrogen adsorption; type: physicochemical
Description: Samples were analysed for BET (Brunauer-Emmett-Teller) surface area by a multipoint Nitrogen adsorption method (volumetric technique) using a Micromeritics TriStar 3020 instrument. The sample degassing was undertaken using a Micromeritics FlowPrep 060 applying flowing argon of 99.995% purity at a flow rate of approximately 20 cc/min for two hours at 20° C. Samples were degassed in their respective analysis tubes and transferred directly to the TriStar II immediately after the degassing period.

[5] = Tapped bulk density, compressibility (Carr's) index and Hausner ratio; type: physicochemical; design: Compressibility (Carr's) Index: scale not given here; conditions: for Interpretation (flow): from average compressibility index / Hausner ratio, Tables 7 and 8
Description: Tapped Bulk Density: Tapped bulk density analysis was performed by pouring powder that had been sieved through a 1 mm Retsch stainless steel test sieve into a clean, dry pre-weighed 50 ml measuring cylinder. Powder was added to a total volume of 45-50 ml without compacting the sample. The mass and the initial volume (V0) were recorded. The sample was tapped using a Copley JV2000 tapped density tester using the following number of taps: 10, 490, 750 and sets of 1250 taps up to a total of 10,000 taps (Table 6). The volume was recorded after each set of taps and the sample was tapped until it reached constant volume (Vf). For these samples the 10,000 tap volume was used as Vf. Each sample was analysed in duplicate and the tapped density, compressibility index (Carr's index) and Hausner ratios were calculated using the formulae given below. The results from the duplicate analysis were averaged and the average result was used to assess the flow properties of the sample, using the parameters given in Table 7 (see “The Science of Dosage Form Design”, ME Aulton, 1988) and Table 8 (see USP method <1174>; see also, Carr, R. L. Evaluating Flow Properties of Solids. Chem Eng. 1965, 72, 163-168). Tapped Bulk Density=M/Vf. [formula] [formula]

[6] = Intrinsic dissolution of compressed disc, Sirius T3; type: physicochemical; conditions: Britton-Robinson buffer, average pH 3.12 (Form A), room temperature, disc 7.07 mm^2
Description: In one embodiment, the extrapolated intrinsic dissolution rate is measured using dissolution disc having 7.07 mm^2 which was compressed under high pressure, ca. 100 kg, using a constructed die. In one embodiment, a Sirius T3 was used as the dissolution apparatus containing 20 mL of test media with stirring speed of the paddle set to −30%. In some embodiments, the dissolution was measured at room temperature. In one embodiment, dissolution was measured over 1 pH sector by ultraviolet (UV) spectrometry. In one embodiment, the UV spectra of the dissolution solution was collected over time, for example every 30 seconds, and converted to concentration using the molar extinction coefficient (MEC) by UV-metric titration. In one embodiment, the intrinsic dissolution rate was calculated by dividing the extrapolated dissolution rate by the surface area of the dissolution disc. In one embodiment, the dissolution media was Britton-Robinson buffer solution. In one embodiment, the dissolution media was pH 3.1 Britton-Robinson buffer solution. In one embodiment, the dissolution media was pH 3.2 Britton-Robinson buffer solution. In another embodiment, the dissolution media was pH 4.7 Britton-Robinson buffer solution.
Intrinsic Dissolution: Appropriate weight of the pure test compound material were used to fill the cavity of the dissolution disc and compressed under high pressure, ca. 100 kg, using a constructed die. No additives were added, avoiding any external interference in the intrinsic dissolution profile. The resulting non-disintegrating disc was transferred to the dissolution apparatus, Sirius T3, containing 20 ml of the test media at room temperature. The stirring speed of the paddle was set to −30%. Dissolution was then measured over 1 pH sector. The solution spectra was collected every 30 seconds over 120 collection points and converted to concentration using the molar extinction coefficient (MEC) by UV-metric titration. Intrinsic dissolution rate was calculated by dividing the extrapolated dissolution rate by the surface area of the disk (7.07 mm^2). All analysis was performed in duplicate, with XRPD both prior to and post dissolution analysis, where possible.
Dissolution media, Britton-Robinson buffer solutions, were prepared by adding a specified volume of sodium hydroxide (0.2 M) to 200 ml of a solution of mixed acid, of 0.04 M with respect to phosphoric acid (2.72 ml/l), acetic acid (2.30 ml/l) and boric acid (2.476 g/l). The amount of sodium hydroxide used to prepare each buffer is outlined below:
pH 3.2 Britton-Robinson buffer: 38 ml of sodium hydroxide.

[7] = Rep. 1, M/Vf, Vf = volume after 10,000 taps
[8] = Rep. 2, M/Vf, Vf = volume after 10,000 taps
[9] = listed as Form A Non-micronized

## CCCCOCCOc1ccc(-c2ccc3c(c2)/C=C(/C(=O)Nc2ccc([S@@+]([O-])Cc4cncn4CCC)cc2)CCCN3CC(C)C)cc1 [Cenicriviroc, (S,E)-8-(4-(2-Butoxyethoxy)phenyl)-1-(2-methylpropyl)-N-(4-(((1-propyl-1H-imidazol-5-yl)methyl)sulfinyl)phenyl)-1,2,3,4-tetrahydrobenzo[b]azocine-5-carboxamide]
[1]
  Water solubility: poorly water-soluble

## CCCCOCCOc1ccc(-c2ccc3c(c2)/C=C(/C(=O)Nc2ccc([S@@+]([O-])Cc4cncn4CCC)cc2)CCCN3CC(C)C)cc1 [Form A Micronised]
[2]; listed as Form A Micronized
  Particle Size D10: 0.582 μm
  Particle Size D50: 3.226 μm
  Particle Size D90: 7.576 μm
[3]
  Avalanche Angle: 68.05 deg
  Avalanche Energy: 32.98 kJ/kg
  Avalanche Time: 7.4 s
  Break Energy: 86.41 kJ/kg
  Rest Angle: 44.85 deg
  Interpretation (flow): Passable (Passable - may hang up 41-45)
[4]
  BET constant, C: 37.98
  Surface area: 12.3614 ± 0.0440 m^2/g
[5]; Mean of duplicate
  Compressibility (Carr's) Index: 28.6
  Hausner Ratio: 1.4
  Tapped Bulk Density: 0.2 g/mL
[5]; Rep. 1
  Compressibility (Carr's) Index: 27.55
  Hausner Ratio: 1.42
[5]; [7]
  Tapped Bulk Density: 0.16 g/mL
[5]; Rep. 2
  Compressibility (Carr's) Index: 29.59
  Hausner Ratio: 1.40
[5]; [8]
  Tapped Bulk Density: 0.16 g/mL
[5]
  Interpretation (flow): Poor (23-35)
[6]; Disc 1, 3.14 (Form C)
  Extrapolated Dissolution Rate: 7.20 µg/min
[6]; Disc 2, 3.15 (Form C)
  Extrapolated Dissolution Rate: 9.43 µg/min

## CCCCOCCOc1ccc(-c2ccc3c(c2)/C=C(/C(=O)Nc2ccc([S+]([O-])Cc4cncn4CCC)cc2)CCCN3CC(C)C)cc1 (stereo not drawn) [Form A Non-micronised]
[2]; [9]
  Particle Size D10: 4.725 μm
  Particle Size D50: 13.803 μm
  Particle Size D90: 65.910 μm
[3]
  Avalanche Angle: 72.60 deg
  Avalanche Energy: 41.58 kJ/kg
  Avalanche Time: 6.5 s
  Break Energy: 138.38 kJ/kg
  Rest Angle: 50.75 deg
  Interpretation (flow): Poor (Poor - must agitate, vibrate 46-55)
[4]
  BET constant, C: 42.99
  Surface area: 3.0295 ± 0.0122 m^2/g
[5]; Mean of duplicate
  Compressibility (Carr's) Index: 35.4
  Hausner Ratio: 1.5
  Tapped Bulk Density: 0.2 g/mL
[5]; Rep. 1
  Compressibility (Carr's) Index: 34.34
  Hausner Ratio: 1.52
[5]; [7]
  Tapped Bulk Density: 0.22 g/mL
[5]; Rep. 2
  Compressibility (Carr's) Index: 36.36
  Hausner Ratio: 1.57
[5]; [8]
  Tapped Bulk Density: 0.21 g/mL
[5]
  Interpretation (flow): Very Poor

## CCCCOCCOc1ccc(-c2ccc3c(c2)/C=C(/C(=O)Nc2ccc([S+]([O-])Cc4cncn4CCC)cc2)CCCN3CC(C)C)cc1 (stereo not drawn) [Form C]
[3]; Revolution Analyzer flowability measurements
  Density and flow compared with the Form A samples: more dense and flows better than the Form A samples
[3]
  Avalanche Angle: 51.55 deg
  Avalanche Energy: 20.28 kJ/kg
  Avalanche Time: 4.4 s
  Break Energy: 71.90 kJ/kg
  Rest Angle: 41.30 deg
  Interpretation (flow): Passable (Passable - may hang up 41-45)
[4]
  BET constant, C: 39.87
  Surface area: 2.3071 ± 0.0058 m^2/g
[5]; Mean of duplicate
  Compressibility (Carr's) Index: 6.0
  Hausner Ratio: 1.1
  Tapped Bulk Density: 0.5 g/mL
[5]; Rep. 1
  Compressibility (Carr's) Index: 7.07
  Hausner Ratio: 1.08
[5]; [7]
  Tapped Bulk Density: 0.49 g/mL
[5]; Rep. 2
  Compressibility (Carr's) Index: 5.00
  Hausner Ratio: 1.05
[5]; [8]
  Tapped Bulk Density: 0.48 g/mL
[5]
  Interpretation (flow): Excellent (5-15)
[6]; Disc 1, 3.14 (Form C)
  Extrapolated Dissolution Rate: 10.80 µg/min
[6]; Disc 2, 3.15 (Form C)
  Extrapolated Dissolution Rate: 11.38 µg/min
